The record followed here is paper PMC9611758, “Bioactive Platinum(IV) Complexes Incorporating Halogenated Phenylacetates” (Molecules, 2022).

What all share (format): cell-based, human
The subject of one series is HT29 colon. The series can be described thus: MTT growth inhibition assay, HT29. Conditions: Homo sapiens, HT-29; MTT assay, 72 h. Background: Tetrazolium dyes change colour on reduction, which living cells bring about.
A further series deals with U87 glioblastoma. The series can be described thus: MTT growth inhibition assay, U87. Conditions: Homo sapiens, 72 h.
For the next series, the system named is MCF-7 breast. The series can be described thus: MTT growth inhibition assay, MCF-7. The conditions noted are these: Homo sapiens, MCF7; MTT assay, 72 h.
For the next series, the system named is A2780 ovarian. The series can be described thus: MTT growth inhibition assay, A2780. Conditions: Homo sapiens, A2780, 72 h.
The test system of a further series is H460 lung. The series can be described thus: MTT growth inhibition assay, H460. The conditions noted are these: Homo sapiens, NCI-H460, 72 h.
A further series has as its system A431 skin. The series can be described thus: MTT growth inhibition assay, A431. The conditions noted are these: Homo sapiens, A-431, 72 h.
In another series the test system is Du145 prostate. The series can be described thus: MTT growth inhibition assay, Du145. The conditions noted are these: Homo sapiens, DU-145; MTT assay, 72 h.
The test system of a further series is BE2-C neuroblastoma. The series can be described thus: MTT growth inhibition assay, BE2-C. The conditions noted are these: Homo sapiens, BE(2)-C, 72 h.
Another series deals with SJ-G2 glioblastoma. The series can be described thus: MTT growth inhibition assay, SJ-G2. The conditions noted are these: Homo sapiens, SJ-G2, 72 h.
Another series deals with MIA pancreas. The series can be described thus: MTT growth inhibition assay, MIA. Conditions: Homo sapiens, 72 h.
Series [1] deals with non-tumour derived MCF10A breast line. The series can be described thus: MTT growth inhibition assay, MCF10A. The conditions noted are these: Homo sapiens, MCF-10A, 72 h.
Series [2] relates to ADDP-resistant ovarian variant. The series can be described thus: MTT growth inhibition assay, ADDP. Conditions: Homo sapiens; MTT assay, 72 h.
In a further series the test system is panel of cell lines. The series can be described thus: MTT growth inhibition assay, whole panel of cell lines. Conditions: 72 h; for GI50: Homo sapiens, average over the cell lines tested, MTT assay; for cytotoxicity: panel of cell lines, MTT.
For another series, the system named is HT29 colon cells. The series can be described thus: ROS detection assay (DCFH-DA). The conditions noted are these: for ROS production relative to the control: HT29 colon cells, 24, 48 and 72 h; for ROS production 24 h / ROS production 48 h / ROS production 72 h: HT29 colon cells, treated at GI50 concentration (TBHP positive control 20 μM). From the text:
Although ROS is required for cancer cell function and progression, it can induce programmed cell death or apoptosis. […] In this study, we report the ROS activity of the studied platinum(IV) complexes, 1–8, together with the individual axial ligands (4-CPA, 4-FPA, 4-BPA, and 4-IPA) in the human cancer cell line, HT29 colon (Figure 19, Table 8, and Figure S95). The ROS potential of their platinum(II) and platinum(IV) precursors in the same cell line is also presented for comparison purposes (Table 8). […] HT29 colon cells were stained by DCFH-DA and then treated with the complexes at each specific GI50 concentration. Upon ROS production, the DCFH-DA produced dichlorodihydrofluorescein, a fluorescent product. The measured fluorescence was, therefore, proportional to the produced ROS.
To investigate the presence of ROS in treated cells, a DCFDA/H2DCFDA-cellular ROS Assay Kit (Abcam, Cambridge, MA, USA) was used, as previously described. A total of 25,000 cells/mL of HT29 cells in DMEM were seeded in 96-well plates. Cells were washed with 1X kit buffer, and then stained with 25 μM 2′,7′-dichlorofluorescein diacetate (DCFH-DA) and incubated for 45 min. DCFH-DA was then removed, and cells were then re-washed with 1X kit buffer, after which phenol red free media was added. Cells were then treated with a GI50 drug concentration for each complex. The plates were directly scanned to measure fluorescence (relative fluorescence units (RFU)) at different time points using the Glo-Max®-Multimode microplate reader (Promega Corporation, Alexandra, VIC, Australia) at an excitation/emission of 485/535 nm. To generate the positive control (20 μM tert-butyl hydroperoxide (TBHP)), cells were washed with 1X kit buffer, and stained with DCFDA (25 μM) for 45 min; this was removed and TBHP was added in phenol red free media, and the resulting solution was scanned as described above.

`O=C(O)Cc1ccc(Br)cc1` [Complex 4-BPA, 4-bromophenylacetic acid]: the GI50 in the series on HT29 colon, with U87 glioblastoma, in the series on MCF-7 breast, in the series on A2780 ovarian, with H460 lung and with A431 skin was over 50 µM in each case. The GI50 (with Du145 prostate; with BE2-C neuroblastoma; in the series on SJ-G2 glioblastoma; in the series on MIA pancreas; in series [1]; in series [2]) was over 50 µM in each case. Besides, in the series with panel of cell lines, the GI50 (as a rule, the concentration at which growth is held to half of that of the control) is over 50 µM. For the same molecule, the “cytotoxicity” value in the series on panel of cell lines is “did not demonstrate significant cytotoxicity”. Also, in the series on HT29 colon cells, the “ROS production relative to the control” value is recorded as “increase in ROS production relative to the control”. The “ROS production 24 h” value in the series with HT29 colon cells is reported as 172 ± 9 RFU. The “ROS production 48 h” value in the series on HT29 colon cells was found to be 198 ± 10 RFU. Moreover, the “ROS production 72 h” value with HT29 colon cells stood at 222 ± 13 RFU.
With `O=C(O)Cc1ccc(Cl)cc1` [Complex 4-CPA, 4-chlorophenylacetic acid], the GI50 in the series with HT29 colon, in the series on U87 glioblastoma, in the series on MCF-7 breast, with A2780 ovarian, in the series with H460 lung and in the series with A431 skin was over 50 µM each time. The concentration for 50% growth inhibition (GI50) (in the series on Du145 prostate; in the series with BE2-C neuroblastoma; in the series with SJ-G2 glioblastoma; with MIA pancreas; in [1]; in series [2]) was over 50 µM throughout. In the series on panel of cell lines, this molecule displayed a GI50 of over 50 µM. In addition, the “cytotoxicity” value with panel of cell lines is reported as “did not demonstrate significant cytotoxicity”. For the same molecule, the “ROS production relative to the control” value in the series on HT29 colon cells was “increase in ROS production relative to the control”. In the series on HT29 colon cells, the “ROS production 24 h” value was 167 ± 13.2 RFU. Further, the “ROS production 48 h” value in the series with HT29 colon cells is 207 ± 14.5 RFU. For the same molecule, the “ROS production 72 h” value with HT29 colon cells came out at 233 ± 10.4 RFU.
On to `O=C(O)Cc1ccc(F)cc1` [Complex 4-FPA, 4-fluorophenylacetic acid], for which the GI50 in the series with HT29 colon, in the series with U87 glioblastoma, in the series on MCF-7 breast, in the series with A2780 ovarian, in the series on H460 lung and in the series with A431 skin was over 50 µM each time. Moreover, the concentration for 50% growth inhibition (GI50) (in the series on Du145 prostate; with BE2-C neuroblastoma; with SJ-G2 glioblastoma; in the series with MIA pancreas; in series [1]; in series [2]) was over 50 µM throughout. This molecule also registered a GI50 in the series with panel of cell lines of over 50 µM. Moreover, in the series on panel of cell lines, the “cytotoxicity” value is “did not demonstrate significant cytotoxicity”. The “ROS production relative to the control” value in the series on HT29 colon cells was “increase in ROS production relative to the control”. Besides, the “ROS production 24 h” value in the series with HT29 colon cells was 197 ± 8 RFU. In addition, the “ROS production 48 h” value in the series on HT29 colon cells amounted to 224 ± 11 RFU. For the same molecule, the “ROS production 72 h” value in the series with HT29 colon cells amounted to 236 ± 6 RFU.
In the case of `O=C(O)Cc1ccc(I)cc1` [Complex 4-IPA, 4-iodophenylacetic acid], the GI50 with HT29 colon, with U87 glioblastoma, in the series on MCF-7 breast, in the series with A2780 ovarian, in the series with H460 lung and in the series on A431 skin was over 50 µM throughout. In addition, the GI50 (in the series with Du145 prostate; with BE2-C neuroblastoma; with SJ-G2 glioblastoma; in the series with MIA pancreas; in [1]; in series [2]) was over 50 µM in each case. Moreover, the GI50 in the series with panel of cell lines is over 50 µM. Besides, the “cytotoxicity” value in the series on panel of cell lines was “did not demonstrate significant cytotoxicity”. Moreover, in the series with HT29 colon cells, the “ROS production relative to the control” value was “increase in ROS production relative to the control”. Also, the “ROS production 24 h” value with HT29 colon cells is 137 ± 7 RFU. Further, the “ROS production 48 h” value with HT29 colon cells is reported as 182 ± 12 RFU. Also, the “ROS production 72 h” value with HT29 colon cells is listed as 206 ± 9 RFU.
With `CC(C)(C)OO` [TBHP, tert-butyl hydroperoxide], in the series with HT29 colon cells, the “ROS production 24 h” value was found to be 514 ± 3 RFU, the “ROS production 48 h” value was 336 ± 2 RFU and the “ROS production 72 h” value was 332 ± 5 RFU.
